The supplement of paper PMC8612539

System: Escherichia coli
Assay: minimum inhibitory concentration (MIC)
Description: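 Broth microdilution MIC (Sensititre BOPO7F bovine plate, CLSI methods) of 19 antimicrobials against field isolates of P. multocida, M. haemolytica, H. somni (deep nasopharyngeal swabs) and E. coli, Enterococcus spp. (rectal swabs) from weaned dairy heifers. Incubation 16-24 h at 35 C. MIC is the lowest concentration preventing visible growth. Values with <= or > lie at the tested range limits. Trimethoprim-sulfamethoxazole is given as the trimethoprim component of a 1:19 mixture.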

Measured: minimum inhibitory concentration

CCC[C@@H]1C[C@@H](C(=O)N[C@@H]([C@H]2O[C@H](SC)[C@H](O)[C@@H](O)[C@H]2O)[C@H](C)Cl)N(C)C1 [Clindamycin]
> 16 µg/mL: isolate (source animal id): 8 | isolate (source animal id): 9 | isolate (source animal id): 10 | isolate (source animal id): 11 | isolate (source animal id): 12 | isolate (source animal id): 13 | isolate (source animal id): 14 | isolate (source animal id): 15 | isolate (source animal id): 16 | isolate (source animal id): 98 | isolate (source animal id): 99 | isolate (source animal id): 100 | isolate (source animal id): 101 | isolate (source animal id): 102 | isolate (source animal id): 103 | isolate (source animal id): 104 | isolate (source animal id): 105 | isolate (source animal id): 106 | isolate (source animal id): 107 | isolate (source animal id): 108 | isolate (source animal id): 109 | isolate (source animal id): 110 | isolate (source animal id): 111 | isolate (source animal id): 112 | isolate (source animal id): 113 | isolate (source animal id): 114 | isolate (source animal id): 115 | isolate (source animal id): 116 | isolate (source animal id): 117 | isolate (source animal id): 118 | isolate (source animal id): 119 | isolate (source animal id): 120 | isolate (source animal id): 121 | isolate (source animal id): 122 | isolate (source animal id): 123 | isolate (source animal id): 124 | isolate (source animal id): 125 | isolate (source animal id): 126 | isolate (source animal id): 127 | isolate (source animal id): 128 | isolate (source animal id): 129 | isolate (source animal id): 130 | isolate (source animal id): 131 | isolate (source animal id): 132 | isolate (source animal id): 133 | isolate (source animal id): 134 | isolate (source animal id): 135 | isolate (source animal id): 136 | isolate (source animal id): 137 | isolate (source animal id): 138 | isolate (source animal id): 139 | isolate (source animal id): 140 | isolate (source animal id): 141 | isolate (source animal id): 142 | isolate (source animal id): 143 | isolate (source animal id): 144 | isolate (source animal id): 145 | isolate (source animal id): 146 | isolate (source animal id): 147 | isolate (source animal id): 148 | isolate (source animal id): 149 | isolate (source animal id): 150 | isolate (source animal id): 151 | isolate (source animal id): 152 | isolate (source animal id): 153 | isolate (source animal id): 154 | isolate (source animal id): 155 | isolate (source animal id): 156 | isolate (source animal id): 157 | isolate (source animal id): 158 | isolate (source animal id): 159 | isolate (source animal id): 160 | isolate (source animal id): 161 | isolate (source animal id): 162 | isolate (source animal id): 163 | isolate (source animal id): 164 | isolate (source animal id): 165 | isolate (source animal id): 166 | isolate (source animal id): 167 | isolate (source animal id): 168 | isolate (source animal id): 169 | isolate (source animal id): 170 | isolate (source animal id): 171 | isolate (source animal id): 172 | isolate (source animal id): 173 | isolate (source animal id): 174 | isolate (source animal id): 175 | isolate (source animal id): 176 | isolate (source animal id): 177 | isolate (source animal id): 178 | isolate (source animal id): 179 | isolate (source animal id): 180 | isolate (source animal id): 181 | isolate (source animal id): 182 | isolate (source animal id): 183 | isolate (source animal id): 184 | isolate (source animal id): 185 | isolate (source animal id): 186 | isolate (source animal id): 187 | isolate (source animal id): 188
